Structures are written as SMILES. Where two headings read alike, the source gives them in different places. Where only a bound is given, the exact number is not on record here.

What is called IC50 is the midpoint of a concentration-inhibition curve.

The test system of one test is T. gondii/CpIMPDH. The test is described as follows: Antiparasitic activity in Toxoplasma gondii model of C. parvum infection. To be noted: cultured in hTERT-immortalized human foreskin fibroblasts.
The target in test [1] is T1, CpIMPDH (Cryptosporidium parvum, UniProt Q8T6T2).
T1 sequence (Q8T6T2 1-400): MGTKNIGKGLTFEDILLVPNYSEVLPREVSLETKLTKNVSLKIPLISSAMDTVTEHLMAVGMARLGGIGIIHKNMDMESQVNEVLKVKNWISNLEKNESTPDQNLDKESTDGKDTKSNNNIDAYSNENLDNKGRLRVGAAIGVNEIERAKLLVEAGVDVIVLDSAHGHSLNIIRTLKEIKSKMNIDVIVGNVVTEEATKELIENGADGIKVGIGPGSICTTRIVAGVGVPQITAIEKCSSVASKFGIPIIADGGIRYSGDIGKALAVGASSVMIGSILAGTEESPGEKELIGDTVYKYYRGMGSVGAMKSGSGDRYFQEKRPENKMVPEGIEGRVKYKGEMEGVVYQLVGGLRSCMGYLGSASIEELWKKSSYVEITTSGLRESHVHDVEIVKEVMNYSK
The test is described as follows: Mechanism of CpIMPDH inhibition with respect to NAD+. It is filed as biochemical.

Another test deals with C. parvum. The test is described as follows: IL12 knockout mouse model of C. parvum infection. Type of test: in vivo. To be noted: 250 mg/kg oral once per day for seven days.
The next test concerns human IMPDH1. The settings on record: read-out: IC50 human IMPDH1; cited from earlier work.
Test [2] has as its target T1, CpIMPDH. To be noted: with respect to NAD+, cited from earlier work.
In the next test the test system is human IMPDH2. To be noted: read-out: IC50 human IMPDH2; cited from earlier work.
For test [3] the following is noted: 50 μM; cited from earlier work.

With `Cn1nc(CC(=O)Nc2ccc3oc4ccccc4c3c2)c2ccccc2c1=O` [Compound 54], the “EC50 Toxo/CpIMPDH” value in the test with T. gondii/CpIMPDH is “sub-micromolar activity”.
The same measure, in the same setting: then `Cn1nc(CC(=O)Nc2ccc(Br)c(C(F)(F)F)c2)c2ccccc2c1=O` [Compound 26], with “sub-micromolar activity”.
As for `Cn1nc(CC(=O)Nc2ccc(Cl)c(C(F)(F)F)c2)c2ccccc2c1=O` [Compound 27], the mode of inhibition result on CpIMPDH [1] was “pure noncompetitive inhibitor”. The “antiparasitic activity in vivo” value in the test with C. parvum is “no antiparasitic activity was observed”. Besides, in the test on T. gondii/CpIMPDH, the “EC50 Toxo/CpIMPDH” value was “sub-micromolar activity”.
Turning to `COc1ccc(NC(=O)Cc2nn(C)c(=O)c3ccccc23)cc1` [Compound 1], the IC50 in the test with human IMPDH1 and in the test on human IMPDH2 was above 50 µM each time. For the same molecule, the Ki on CpIMPDH [2] (read-out: Kis) is 1.8 µM. The mode of inhibition entry at CpIMPDH [2] is reported as “mixed inhibitor”. The antiparasitic activity entry in test [3] is “did not display antiparasitic activity”.
Consider `Cn1nc(CC(=O)Nc2ccc3oc4c(c3c2)CCCC4)c2ccccc2c1=O` [Compound 53], for which the “EC50 Toxo/CpIMPDH” value in the test with T. gondii/CpIMPDH is recorded as “sub-micromolar activity”.

The values above are taken from publication PMC3557747 (Bioorganic & medicinal chemistry letters, 2012).
